In ChEMBL document CHEMBL5344478, “Cytochrome bd oxidase: an emerging anti-tubercular drug target” (RSC Med Chem, 2024):

tested on: Mycobacterium tuberculosis variant bovis; test: Antibacterial activity against Mycobacterium bovis BCG assessed as reduction in bacterial growth; format: functional, organism-based

Compound	IC50 [nM]
CC(C)(C)c1ccc(CCNc2ncnc3ccsc23)cc1	5800
Fc1ccc2c(NCCc3ccc(OC(F)(F)F)cc3)ncnc2c1	800
CC(C)(C)c1ccc(CCNc2ncnc3ccccc23)cc1	800
